ChEMBL document CHEMBL1152060, “Pentamidine congeners 1: Synthesis of Cis- and Trans-butamidine analogues as anti-Pneumocystis carinii pneumonia agents” (1993)

Columns and labels:
Rattus norvegicus [1] = test: Anti-Pneumocystis carinii Pneumonia activity at intravenous dosage of 10.0 mg/kg/day in rat; format: functional
Rattus norvegicus [2] = test: In vivo toxicity […] at intravenous dosage of 10.0 mg/kg/day in rat; format: functional

| Structure (SMILES) | Control (Rattus norvegicus [1]) [%] | Toxicity (Rattus norvegicus [2]) |
| --- | --- | --- |
| N=C(N)c1ccc(OCCCCCOc2ccc(C(=N)N)cc2)cc1 [PENTAMIDINE] | 4.5 | 2 |
| C(=C\COc1ccc(C2=NCCN2)cc1)/COc1ccc(C2=NCCN2)cc1 | 1.5 | 0 |
| N=C(N)c1ccc(OC/C=C/COc2ccc(C(=N)N)cc2)cc1 | 0.8 | 0 |
| C(=C/COc1ccc(C2=NCCN2)cc1)/COc1ccc(C2=NCCN2)cc1 | 1.4 | 0 |
| N=C(N)c1ccc(OC/C=C\COc2ccc(C(=N)N)cc2)cc1 | 1.3 | 0 |
